Source: EP1203770A1 (priority 1992, dated 1994)
pKi: −log10 of the molar value.

Molecular target: T1, HIV-1 protease (Human immunodeficiency virus type 1 group M subtype B, UniProt P04585)
T1 construct: The protease (or proteinase), consisting of only 99 amino acids, is among the smallest enzymes known
Assay: In vitro HIV protease inhibitory assay (HIV Protease FITC Assay)
Type: biochemical
Details: for inhibition at 0.123 µM: HIV-1 Dose 0.123 uM; for inhibition at 0.123 µM / inhibition at 0.37 µM / inhibition at 1.1 µM / inhibition at 3.3 µM / inhibition at 10 µM / inhibition at 30 µM / inhibition at 100 µM: read-out: HIV-1 Protease % Inhib; for inhibition at 0.37 µM: HIV-1 Dose 0.370 uM; for inhibition at 1.1 µM: HIV-1 Dose 1.100 uM; for inhibition at 3.3 µM: HIV-1 Dose 3.300 uM; for inhibition at 10 µM: HIV-1 Dose 10.000 uM; for inhibition at 30 µM: HIV-1 Dose 30.000 uM; for inhibition at 100 µM: HIV-1 Dose 100.000 uM; for pKi: read-out: HIV-1 FITC Ki
Outline: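 Percent inhibition was read as fluorescence after avidin-bead capture and filtration separated FITC cleavage product from biotinylated substrate. Enzyme and substrate reacted 1 h, RT, dark, at pH 5.5 (0.1 M sodium acetate, 1.0 M NaCl, 0.05% NP-40).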

Row | SMILES | inhibition at 0.123 µM [%] | inhibition at 0.37 µM [%] | inhibition at 1.1 µM [%] | inhibition at 3.3 µM [%] | inhibition at 10 µM [%] | inhibition at 30 µM [%] | inhibition at 100 µM [%] | pKi
1 | CCC(CC1CCCN1S(=O)(=O)c1ccc(C)cc1)c1cc(O)c(C(c2ccccc2)C2CC2)c(=O)o1 (stereo not shown) [Example 138, 2-[2-[3-(Cyclopropylphenylmethyl)-4-hydroxy-2-oxo-2H-pyran-6-yl]butyl]-1-[(4-methylphenyl)sulfonyl]-pyrrolidine] | < 10 | < 10 | 24.8 | 63.9 | 83.3 | 81.1 |  | 
2 | O=c1oc(CCC(F)(F)F)cc(O)c1C(c1ccccc1)C1CC1 (stereo not shown) [Example 139, 3-(Cyclopropylphenylmethyl)-4-hydroxy-6-(3,3,3-trifluoropropyl)-2H-pyran-2-one] | < 10 | < 10 | < 10 | 27.9 | 58 | 67.1 |  | 
3 | CCC(CC1CCCCN1S(=O)(=O)c1ccc(C)cc1)c1cc(O)c(C(c2ccccc2)C2CC2)c(=O)o1 (stereo not shown) [Example 140, 2-[2-(3-(Cyclopropylphenylmethyl)-4-hydroxy-2-oxo-2H-pyran-6-yl]butyl]-1-[(4-methylphenyl)sulfonyl]-piperidine] | < 10 | 10.5 | 38.6 | 70.2 | 81.6 | 77.1 |  | 
4 | CCC(CC1CCN(S(=O)(=O)c2ccc(C)cc2)CC1)c1cc(O)c(C(c2ccccc2)C2CC2)c(=O)o1 (stereo not shown) [Example 141, 4-[2-[3-(Cyclopropylphenylmethyl)-4-hydroxy-2-oxo-2H-pyran-6-yl]butyl]-1-[(4-methylphenyl)sulfonyl]-piperidine] | < 10 | < 10 | < 10 | < 10 | 11.2 | 17 |  | 
5 | CCC(CC1CC(=O)N(Cc2ccccc2)C1)c1cc(O)c(C(c2ccccc2)C2CC2)c(=O)o1 (stereo not shown) [Example 142, 4-[2-[3-(Cyclopropylphenylmethyl)-4-hydroxy-2-oxo-2H-pyran-6-yl]butyl]-1-(phenylmethyl)-2-pyrrolidinone] | < 10 | < 10 | 26.9 | 64.3 | 88.7 | 104 |  | 
6 | O=c1oc(CC2CCCC2)cc(O)c1C(c1ccccc1)C1CC1 (stereo not shown) [Example 143, 6-(Cyclopentylmethyl)-3-(cyclopropylphenylmethyl)-4-hydroxy-2H-pyran-2-one] | < 10 | < 10 | 25.1 | 57.9 | 83.1 | 93.8 |  | 
7 | O=c1oc(CC2CCOCC2)cc(O)c1C(c1ccccc1)C1CC1 (stereo not shown) [Example 144, 3-(Cyclopropylphenylmethyl)-4-hydroxy-6-[(tetrahydro-2H-pyran-4-yl)methyl]-2H-pyran-2-one] | < 10 | < 10 | < 10 | < 10 | < 10 | 22.7 |  | 
8 | O=c1oc(CCCF)cc(O)c1C(c1ccccc1)C1CC1 (stereo not shown) [Example 145, 3-(Cyclopropylphenylmethyl)-6-(3-fluoropropyl)-4-hydroxy-2H-pyran-2-one] | < 10 | < 10 | < 10 | 26.6 | 59.7 | 84.4 |  | 
9 | CCC(c1cc(O)c(C(c2ccccc2)C2CC2)c(=O)o1)C(O)c1ccccc1 (stereo not drawn) [Example 146, 3-(α-cyclopropylbenzyl)-4-hydroxy-6-(α-ethyl-β-hydroxyphenethyl)-2H-pyran-2-one] | 36.4 | 73.6 | 82.7 | 87.7 | 91.2 | 95.2 |  | 
10 | Cc1ccc(C(O)Cc2cc(O)c(C(c3ccccc3)C3CC3)c(=O)o2)cc1 (stereo not drawn) [Example 147, 3-(α-cyclopropylbenzyl)-4-hydroxy-6-(β-hydroxy-p-methylphenethyl)-2H-pyran-2-one] | < 10 | < 10 | 28.9 | 52.6 | 78.1 | 89.2 | 114 | 
11 | O=c1oc(CC(O)c2ccc(F)cc2)cc(O)c1C(c1ccccc1)C1CC1 (stereo not drawn) [Example 148, 3-(α-cyclopropylbenzyl)-4-hydroxy-6-(β-hydroxy-p-fluorophenethyl)-2H-pyran-2-one] | < 10 | 22.4 | 52 | 80.3 | 91.9 | 89.7 | 130 | 6.79
12 | O=c1oc(CC(O)c2ccc(Cl)cc2)cc(O)c1C(c1ccccc1)C1CC1 (stereo not drawn) [Example 149, 3-(α-cyclopropylbenzyl)-4-hydroxy-6-(β-hydroxy-p-chlorophenethyl)-2H-pyran-2-one] | < 10 | 19.7 | 46.9 | 73.5 | 98.5 | 103 | 117 | 6.57
13 | O=c1oc(CC(O)c2cccc(Cl)c2)cc(O)c1C(c1ccccc1)C1CC1 (stereo not drawn) [Example 150, 3-(α-cyclopropylbenzyl)-4-hydroxy-6-(β-hydroxy-m-chlorophenethyl)-2H-pyran-2-one] | < 10 | 13.3 | 25.4 | 54.1 | 75.2 | 91 | 113 | 
14 | O=c1oc(CC(O)c2ccccc2Cl)cc(O)c1C(c1ccccc1)C1CC1 (stereo not drawn) [Example 151, 3-(α-cyclopropylbenzyl)-4-hydroxy-6-(β-hydroxy-o-chlorophenethyl)-2H-pyran-2-one] | < 10 | < 10 | 19.1 | 39.8 | 70.1 | 88.4 | 113 | 
15 | O=c1oc(CC(O)c2ccoc2)cc(O)c1C(c1ccccc1)C1CC1 (stereo not drawn) [Example 152, 3-(α-cyclopropylbenzyl)-4-hydroxy-6-(2-(furan-3-yl)-2-hydroxyethyl)-2H-pyran-2-one] | < 10 | < 10 | 26.4 | 48.8 | 77.6 | 90.5 | 110 | 
16 | O=c1oc(CC(O)c2ccsc2)cc(O)c1C(c1ccccc1)C1CC1 (stereo not drawn) [Example 153, 3-(α-cyclopropylbenzyl)-4-hydroxy-6-(2-(thiophen-3-yl)-2-hydroxyethyl)-2H-pyran-2-one] | < 10 | 17.7 | 40.3 | 69 | 88.6 | 99.7 | 120 | 
17 | CCC(Cc1ccc(F)cc1)c1cc(O)c(C(c2ccccc2)C2CC2)c(=O)o1 (stereo not drawn) [Example 154, 3-(α-cyclopropylbenzyl)-4-hydroxy-6-(α-ethyl-p-flurorphenethyl)-2H-pyran-2-one] | 21.9 | 57.3 | 84.1 | 86.7 | 98.1 | 92.9 |  | 7.41
